Laboratory results published in patent US7452977B2, “Antibody to a kinase capable of site-specific phosphorylation of IκBα” (Millennium Pharmaceuticals, Inc., priority 1996, dated 2008).

Columns and labels:
IκBα kinase [1] = target: T1, IκBα kinase (Homo sapiens, UniProt O14920+O15111); assay: ELISA-based IκBα kinase assay (ELISA scheme 1), MEKK1-activated partially purified kinase; type: biochemical; settings: 10 μM inhibitor added to activated kinase before the biotinylated peptide substrate
T1 construct: IC50 against IκBα kinase activity; FI; Km of IκBα kinase for ATP
Method: IκBα kinase was prepared by first diluting S-100 HeLa cell extracts [1:10] with 50 mM HEPES pH 7.6 and 40% ammonium sulfate was added for 30 minutes on ice. Collected pellet was redissolved to a minimum volume, centrifuged, and filtered through a 0.22 μm filter. Sample was loaded onto a Superose-6 FPLC column equilibrated with 50 mM HEPES pH 7.6. 25 mM NaCl, 1 mM DTT, operated at 4° C. at 1 mL/min flow rate. Fractions were assayed for activity by the gel-shift assay. Active fractions peaked at ˜700 kD were collected, pooled, and protein concentration was determined.
ELISA scheme 1—Biotinylated peptide substrate at 500 μM was incubated with partially purified kinase alone, with 30 nM MEKK1Δ alone, or in combination for 2 hrs at 37° C. with 2.5 mM ATP, 10 mM DTT, 5 μM okadaic acid in the presence or absence of inhibitor. Kinase reactions were quenched by diluting [1:50] with PBS-BTE (PBS, 0.1% BSA, 0.05% Tween-20, 20 mM EDTA). […] Color development was performed with o-phenylenediamine dihydrochloride (Sigma FAST o-PD) and signals were recorded at 450 nm. Alternatively, peroxidase reaction was quenched with 3 N HCl and signals were read at 492 nm.
When control primary antibody which recognizes all IκBα species was used, all samples containing biotinylated peptide substrate produced peroxidase activity as detected by the o-PD conversion. […]

IκBα kinase [2] = assay: Phosphorylation of IκBα by partially purified IκBα kinase (gel-based); type: biochemical, human
Method: Unless otherwise indicated, phosphorylation of IκBα was usually carried out at 37° C. for 1 hour in a reaction volume of 10 μl containing: an ATP regenerating system (50 mM Tris-HCl, pH 7.6, 5 mM MgCl2, 2 mM ATP, 10 mM creatine phosphate, 3.5 units/ml creatine kinase, 0.6 units/ml inorganic pyrophosphatase), 0.5 μl of in vitro translated ^35S-labeled IκBα, 2 μg/ml of recombinant RelA homodimer (to form complex with IκBα), 3 μM okadaic acid, 60 μM ubiquitin, 50 nM E1 (rabbit), 1 μM UBC4 (yeast) or GST-UBCh5 (human), and 0.5-3 μl of IκBα kinase containing fractions. In some experiments, HeLa fraction I (1 mg/ml) was used as a source of E2s. At the end of each reaction, SDS sample buffer was added to quench the reaction, and the samples were analyzed by SDS-PAGE (9%) followed by flourography. Phosphorylation of IκBα was quantitated by PhosphorImager analysis. Ubiquitination of IκBα has been described previously (Chen, Z. J. et al., Genes & Dev. 9:1586-1597 (1995)).

NF-κB = assay: Activation of NF-κB in vivo by agonists; type: cell-based; settings: agonists including PMA and ionomycin, TNF-α, and LPS
IκBα [3] = assay: Phosphorylation and ubiquitination of 35S-labeled IκBα in HeLa cell cytoplasmic extracts with okadaic acid; type: biochemical, human; settings: 10 μM; in the presence of okadaic acid; FIG. 9
Text: ^35S-labeled IκBα was synthesized by in vitro translation, and used as a substrate for phosphorylation (bottom panel, short exposure) and ubiquitination (top panel, long exposure) assays in HeLa cell cytoplasmic extracts in the presence of okadaic acid (Chen et al., Genes and Dev. 9:1586-1597 (1995)). Various agents were included in the reaction to test their ability to inhibit the phosphorylation and ubiquitination of IκBα.

IκBα [4] = settings: previously shown (Beg 1993; Henkel 1993; Sun 1993); cited from earlier work
IκBα kinase [5] = target: T1, IκBα kinase; assay: Polypeptide inhibition of 35S-IκBα phosphorylation by IκBα kinase (gel-based); type: biochemical; settings: ubiquitination-activated kinase, 37° C., 40 min, FIG. 20
Method: An N-terminal fragment (residues 5-72) of IκBα was expressed in E. coli as a recombinant protein containing a poly-histidine (His6) tag at the N-terminus.Protein purification was accomplished by nickel affinity chromatography. As a control, the full-length IκBα (SEQ ID NO:9; Haskill (1991) Cell 65:1281) was also expressed and purified in a similar fashion.
Recombinant full-length IκBα or IκBα (5-72) was added at indicated concentration to 10 μl of reaction mixture containing an ATP regenerating system (50 mM Tris at pH 7.6, 5 mM MgCl2, 2 mM ATP, 10 mM phosphocreatine, 3.5 U/ml creatine phosphokinase, 0.6 U/ml inorganic pyrophosphatase), 60 μM Ubiquitin, 50 nM E1, 1 μM UBC4, 0.5 μl of in vitro translated ^35S-IκBα, 0.5 μl of IκBα kinase (fraction 19 from Superdex 200 column), and 3 μM okadaic acid. After incubation at 37° C. for 40 min., the reaction was quenched by the addition of SDS sample buffer, separated by electrophoresis on 9% SDS-polyacrylamide gel, and then analyzed by fluorography.

T1 sequence (O14920 whole entry): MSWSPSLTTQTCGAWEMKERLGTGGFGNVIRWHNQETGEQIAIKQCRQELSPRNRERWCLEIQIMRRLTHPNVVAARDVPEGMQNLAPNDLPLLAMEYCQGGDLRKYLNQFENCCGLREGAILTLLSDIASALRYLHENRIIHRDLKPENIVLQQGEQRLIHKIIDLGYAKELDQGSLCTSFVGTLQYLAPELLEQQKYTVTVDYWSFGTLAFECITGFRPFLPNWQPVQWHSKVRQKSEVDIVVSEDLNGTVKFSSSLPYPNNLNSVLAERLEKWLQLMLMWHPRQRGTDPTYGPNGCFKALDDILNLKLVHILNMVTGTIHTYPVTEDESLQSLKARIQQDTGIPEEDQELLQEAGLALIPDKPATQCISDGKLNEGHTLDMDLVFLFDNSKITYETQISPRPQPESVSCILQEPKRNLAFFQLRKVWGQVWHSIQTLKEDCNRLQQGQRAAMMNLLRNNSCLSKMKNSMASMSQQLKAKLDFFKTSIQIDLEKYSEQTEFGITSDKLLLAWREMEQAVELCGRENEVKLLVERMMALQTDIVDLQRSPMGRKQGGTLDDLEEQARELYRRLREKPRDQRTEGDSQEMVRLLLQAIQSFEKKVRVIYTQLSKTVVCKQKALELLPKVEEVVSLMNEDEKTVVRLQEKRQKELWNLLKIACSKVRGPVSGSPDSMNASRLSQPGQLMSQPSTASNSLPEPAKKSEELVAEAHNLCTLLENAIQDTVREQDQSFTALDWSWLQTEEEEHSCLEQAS
T1 sequence (O15111 whole entry): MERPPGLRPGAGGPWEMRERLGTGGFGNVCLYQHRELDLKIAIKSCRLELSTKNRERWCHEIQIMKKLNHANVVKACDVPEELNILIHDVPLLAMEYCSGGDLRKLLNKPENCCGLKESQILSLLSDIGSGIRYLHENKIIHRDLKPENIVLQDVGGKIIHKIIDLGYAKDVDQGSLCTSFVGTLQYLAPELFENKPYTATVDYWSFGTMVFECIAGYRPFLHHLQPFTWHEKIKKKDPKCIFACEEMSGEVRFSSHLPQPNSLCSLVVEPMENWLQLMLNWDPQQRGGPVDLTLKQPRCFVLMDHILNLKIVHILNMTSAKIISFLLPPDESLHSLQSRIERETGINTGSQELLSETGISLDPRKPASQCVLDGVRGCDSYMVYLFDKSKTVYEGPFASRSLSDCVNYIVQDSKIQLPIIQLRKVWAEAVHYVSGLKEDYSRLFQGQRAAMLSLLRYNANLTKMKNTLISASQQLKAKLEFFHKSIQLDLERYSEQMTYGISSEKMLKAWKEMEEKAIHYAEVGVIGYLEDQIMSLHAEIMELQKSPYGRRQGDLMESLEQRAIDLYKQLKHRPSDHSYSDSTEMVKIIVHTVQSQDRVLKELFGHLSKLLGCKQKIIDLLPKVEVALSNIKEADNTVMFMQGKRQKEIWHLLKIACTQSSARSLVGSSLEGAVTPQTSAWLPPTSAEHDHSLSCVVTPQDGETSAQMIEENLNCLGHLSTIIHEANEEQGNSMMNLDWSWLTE
T1 sequence (Q9Y6K9 whole entry partner): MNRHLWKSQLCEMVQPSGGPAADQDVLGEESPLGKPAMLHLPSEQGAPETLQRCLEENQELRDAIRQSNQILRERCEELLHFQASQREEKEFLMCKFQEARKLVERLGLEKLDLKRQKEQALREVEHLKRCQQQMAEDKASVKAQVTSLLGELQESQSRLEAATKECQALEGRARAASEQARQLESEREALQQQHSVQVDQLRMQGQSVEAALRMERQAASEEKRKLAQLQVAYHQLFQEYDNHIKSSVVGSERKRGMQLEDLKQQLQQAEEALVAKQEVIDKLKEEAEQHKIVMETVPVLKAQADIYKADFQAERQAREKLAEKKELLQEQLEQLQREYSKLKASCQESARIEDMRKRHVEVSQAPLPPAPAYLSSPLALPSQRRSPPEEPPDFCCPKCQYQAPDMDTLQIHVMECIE

Molecule: COC(=O)[C@@]1(O)C[C@H]2O[C@]1(C)n1c3ccccc3c3c4c(c5c6ccccc6n2c5c31)C(=O)NC4 [K252a]
- inhibition of MEKK1 dependent kinase activity (IκBα kinase [1]): fully inhibited
- inhibition of phosphorylation of IκBα by partially purified IκBα kinase (IκBα kinase [2]): inhibits
- inhibition of the activation of NF-κB in vivo (NF-κB): inhibit the activation of NF-κB in vivo
- inhibition of phosphorylation and ubiquitination of IκBα in HeLa cell extracts (IκBα [3]): Inhibit

Molecule: Cc1ccc(S(=O)(=O)N[C@@H](CCCCN)C(=O)CCl)cc1 [TLCK, Nα-p-tosyl-L-lysine chloromethyl ketone]
- inhibition of phosphorylation and degradation of IκBα in vivo (IκBα [4]): inhibit

Molecule: N-tosyl-L-phenylalanine chloromethyl ketone [TPCK]
- inhibition of phosphorylation and degradation of IκBα in vivo (IκBα [4]): inhibit

B1: full-length IκBα: recombinant full-length IκBα (SEQ ID NO:9), expressed and purified as control (protein, listed as Homo sapiens)
chain: MFQAAERPQEWAMEGPRDGLKKERLLDDRHDSGLDSMKDEEYEQMVKELQEIRLEPQEVPRGSEPWKQQLTEDGDSFLHLAIIHEEKALTMEVIRQVKGDLAFLNFQNNLQQTPLHLAVITNQPEIAEALLGAGCDPELRDFRGNTPLHLACEQGCLASVGVLTQSCTTPHLHSILKATNYNGHTCLHLASIHGYLGIVELLVSLGADVNAQEPCNGRTALHLAVDLQNPDLVSLLLKCGADVNRVTYQGYSPYQLTWGRPSTRIQQQLGQLTLENLQMLPESEDEESYDTESEFTEFTEDELPYDDCVFGGQRLTL
- inhibition of phosphorylation of 35S-IκBα by purified IκBα kinase (IκBα kinase [5]): inhibition

B2: IκBα (5-72): N-terminal fragment (residues 5-72) of IκBα, recombinant from E. coli with N-terminal His6 tag (protein)
chain: HHHHHHAERPQEWAMEGPRDGLKKERLLDDRHDSGLDSMKDEEYEQMVKELQEIRLEPQEVPRGSEPWKQQLTE
- inhibition of phosphorylation of 35S-IκBα by purified IκBα kinase (IκBα kinase [5]): inhibition
- inhibition of phosphorylation of 35S-IκBα by purified IκBα kinase (IκBα kinase [5]; listed as amino acid residues 5-72 of IκBα): selectively inhibits
